Assay results published in patent publication US9890185B2, “Urea derivatives useful as kinase inhibitors” (Respivert Limited, priority 2013, dated 2018).

Legend:
[1] = target: p38 MAPKα isoform (MAPK14) (Homo sapiens (Human), UniProt Q16539); test: p38 MAPKα enzyme inhibition (FRET, Z-LYTE, Method 2); type: biochemical
Method in brief: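 Z-LYTE FRET: p38 MAPKα (80 ng/mL for Method 1, 200 ng/mL for Method 2, pre-dilution) preincubated 2 hr RT with compound (4–0.004 μg/mL solutions), activity read via MAPKAP-K2 phosphorylation after 1 hr RT and 1 hr protease development. Coumarin/fluorescein ratio gives phosphorylation; % inhibition versus uninhibited control, IC50 from concentration-response curve.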

c-Src = c-Src (Homo sapiens (Human), UniProt P12931); test: c-Src enzyme inhibition (FRET, Z-LYTE); type: biochemical
Method in brief: (§1)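 First, compound and enzyme incubate 2 hr at room temperature. Next, FRET peptide (8 μM added solution) and ATP go in for 1 hr, using an 800 μM solution for c-Src and 60 μM for Syk. Finally protease develops for 1 hr; IC50 is fitted to inhibition versus concentration.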

Syk = Syk (Homo sapiens (Human), UniProt P43405); test: Syk enzyme inhibition (FRET, Z-LYTE); type: biochemical
Method in brief: as §1

GSK 3α = GSK 3α (Homo sapiens (Human), UniProt P49840); test: GSK 3α enzyme inhibition (FRET, Z-LYTE, Method 2); type: biochemical; details: read-out: IC50 Values for Enzyme Inhibition, GSK3α
Method in brief: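 Human GSK3α (500 ng/mL) preincubated with compound (4, 0.4, 0.04 or 0.004 μg/mL) at RT for 2 h (Method 1) or 105 min (Method 2). Then FRET peptide (8 μM) and ATP (40 μM) added for 1 h, followed by protease development for 1 h. IC50 from the coumarin/fluorescein emission ratio relative to uninhibited control.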

PBMCs [2] = test: LPS-induced IL-8 release in PBMC cells (assay b); type: cell-based, human; details: Homo sapiens, PBMC; LPS-stimulated PBMCs; read-out: IC50 Values for Inhibition of Cytokine Release, PBMCs IL-8
Method in brief: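 Cytokines (TNFα, IL-8) in supernatants were quantified by sandwich ELISA after a 24 h challenge with 1 ng/mL E. coli LPS at 37° C, 5% CO2. Healthy-donor PBMCs had been exposed to compound for 2 h beforehand. IC50 values were fitted from the concentration-response curves.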

HT29 cells = test: IL-1β-induced IL-8 release in HT29 cells (assay d); type: cell-based; details: Homo sapiens, HT-29; IL-1β-stimulated HT29 cells; read-out: IC50 Values for Inhibition of Cytokine Release, HT29 cells IL-8
Protocol: HT29 cells, a human colon adenocarcinoma cell line, are plated in a 96 well plate (24 hrs) and pre-treated with compounds at the desired concentration for 2 hours before addition of 5 ng/mL of IL-1β (Abcam) for 24 hours. Supernatants are harvested for IL-8 quantification by Sandwich ELISA (Duo-set, R&D System). The IC50 is determined from the dose response curve.

d-U937 cells = test: Accumulation of β catenin in d-U937 cells (assay m); type: cell-based, human; details: percentage relative to Reference Compound at 1 μg/mL
Method in brief: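 Read-out: colourimetric cell-based immunoassay for endogenous β-catenin (OD450 minus 655 reference), normalised to crystal violet absorbance at 595 nm. Test compound or vehicle was applied for 18 hr to U937 monocytes first differentiated with PMA (100 ng/mL) for 48–72 hr.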

PBMCs [3] = test: Cell mitosis assay in PBMCs (assay g); type: cell-based; details: Homo sapiens, PBMC, test compound 5 μg/mL
Method in brief: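 Metaphase arrest with 0.1 μg/mL demecolcine during the final 2 hr of a 20 hr compound exposure, which follows 48 hr of 2% PHA stimulation of healthy-donor human PBMCs. Mitotic lymphocytes counted by flow cytometry (anti-phospho-histone 3 plus propidium iodide). Inhibition expressed relative to 0.5% DMSO.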

PBMCs [4] = test: IL-2 release in CD3/CD28 stimulated PBMC cells (assay c); type: cell-based; details: Homo sapiens, read-out: IC50 Values for Inhibition of Cytokine Release, PBMCs IL-2
Method in brief: (§2)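 Healthy-donor PBMCs (density-gradient isolated) stimulated on plates pre-coated with anti-CD3 (0.3 μg/mL) and anti-CD28 (3 μg/mL), with compound, for 3 days under normal culture conditions. IL-2 and IFN gamma in supernatants measured by sandwich ELISA; IC50 from dose-response curve.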

PBMCs [5] = test: IFN gamma release in CD3/CD28 stimulated PBMC cells (assay c); type: cell-based; details: Homo sapiens, read-out: IC50 Values for Inhibition of Cytokine Release, PBMCs IFNγ
Method in brief: as §2

Chain of p38 MAPKα isoform (MAPK14) (Q16539 whole entry, canonical isoform): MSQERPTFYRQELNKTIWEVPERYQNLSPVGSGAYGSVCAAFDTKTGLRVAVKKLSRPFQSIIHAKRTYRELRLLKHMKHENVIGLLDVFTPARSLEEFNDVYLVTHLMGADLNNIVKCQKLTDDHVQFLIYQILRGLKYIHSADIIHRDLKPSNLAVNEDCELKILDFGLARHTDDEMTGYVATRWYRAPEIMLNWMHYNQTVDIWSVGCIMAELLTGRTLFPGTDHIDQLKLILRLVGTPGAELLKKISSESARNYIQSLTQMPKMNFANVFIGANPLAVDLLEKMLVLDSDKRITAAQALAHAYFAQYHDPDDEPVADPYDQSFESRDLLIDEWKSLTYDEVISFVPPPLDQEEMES
Chain of GSK 3α (P49840 whole entry): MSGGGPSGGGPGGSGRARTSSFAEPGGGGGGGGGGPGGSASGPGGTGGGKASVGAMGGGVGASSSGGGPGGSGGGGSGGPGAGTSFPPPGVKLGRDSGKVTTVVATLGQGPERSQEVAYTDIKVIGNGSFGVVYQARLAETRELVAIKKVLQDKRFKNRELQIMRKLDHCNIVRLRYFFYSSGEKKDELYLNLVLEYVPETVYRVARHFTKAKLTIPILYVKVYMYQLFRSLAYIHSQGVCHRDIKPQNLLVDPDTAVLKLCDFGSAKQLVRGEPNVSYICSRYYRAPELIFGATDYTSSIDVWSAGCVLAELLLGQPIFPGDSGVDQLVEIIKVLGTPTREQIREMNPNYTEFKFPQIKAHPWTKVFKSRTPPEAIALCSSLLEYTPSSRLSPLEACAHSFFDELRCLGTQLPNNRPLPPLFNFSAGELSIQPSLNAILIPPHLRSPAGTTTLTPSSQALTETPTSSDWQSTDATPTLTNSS
Chain of c-Src (P12931 whole entry, looked up): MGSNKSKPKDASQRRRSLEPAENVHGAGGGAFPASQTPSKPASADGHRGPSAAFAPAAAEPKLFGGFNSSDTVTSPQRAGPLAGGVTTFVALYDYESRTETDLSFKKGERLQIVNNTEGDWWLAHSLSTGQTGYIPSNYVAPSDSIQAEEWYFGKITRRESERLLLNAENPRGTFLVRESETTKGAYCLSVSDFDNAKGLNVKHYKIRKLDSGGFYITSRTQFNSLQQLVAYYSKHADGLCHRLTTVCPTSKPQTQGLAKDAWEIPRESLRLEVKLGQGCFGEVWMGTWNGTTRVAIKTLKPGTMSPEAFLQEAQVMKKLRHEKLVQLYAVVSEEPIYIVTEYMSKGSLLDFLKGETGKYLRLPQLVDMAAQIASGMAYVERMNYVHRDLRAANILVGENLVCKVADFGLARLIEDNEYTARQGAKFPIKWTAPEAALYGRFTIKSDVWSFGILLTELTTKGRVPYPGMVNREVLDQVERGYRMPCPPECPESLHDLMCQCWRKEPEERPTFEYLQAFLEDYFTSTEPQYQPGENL

| Compound | IC50 [1] [nM] | IC50 (c-Src) [nM] | IC50 (Syk) [nM] | IC50 (GSK 3α) [nM] | IC50 (PBMCs [2]) [nM] | IC50 (HT29 cells) [nM] | % β-catenin induction (d-U937 cells; test compound 1 μg/mL) [%] | % β-catenin induction (d-U937 cells; test compound 5 μg/mL) [%] | % β-catenin induction (d-U937 cells; test compound 10 μg/mL) [%] | inhibition at 5 µg/mL (PBMCs [3]) [%] | IC50 (PBMCs [4]) [nM] | IC50 (PBMCs [5]) [nM] |
| --- | --- | --- | --- | --- | --- | --- | --- | --- | --- | --- | --- | --- |
| COCCOCCOCCOc1cc(Nc2nccc(Oc3ccc(NC(=O)Nc4cc(C(C)(C)C)cc(CC(N)=O)c4OC)c4ccccc34)n2)cc(OC)c1 [15(c), 2-(5-(tert-butyl)-2-methoxy-3-(3-(4-((2-((3-methoxy-5-(2-(2-(2-methoxyethoxy)ethoxy)-ethoxy)phenyl)amino)pyrimidin-4-yl)oxy)naphthalen-1-yl)ureido)phenyl)acetamide] | 52 | 16 | 103 | 844 | 1.6 | 3.6 | 5.5 | 36.0 | 33.0 | – | – | – |
| COc1c(NC(=O)Nc2ccc(Oc3ccnc(Nc4ccccc4)c3)c3ccccc23)cc(C(C)(C)C)cc1C(=O)NCCN1CCC1 [38(a), N-(2-(Azetidin-1-yl)ethyl)-5-(tert-butyl)-2-methoxy-3-(3-(4-((2-(phenylamino)pyridin-4-yl)oxy)naphthalen-1-yl)ureido)benzamide] | 119 | 74 | 54 | 3320 | 3.8 | 25.7 | 5.0 | 10.7 | 19.0 | 86.2 | – | – |
| COc1cc(CO)cc(Nc2cc(Oc3ccc(NC(=O)Nc4cc(C(C)(C)C)cc(P(C)(C)=O)c4OC)c4ccccc34)ccn2)c1 [38(c), 1-(5-(tert-Butyl)-3-(dimethylphosphoryl)-2-methoxyphenyl)-3-(4-((2-((3-(hydroxymethyl)-5-methoxyphenyl)amino)pyridin-4-yl)oxy)naphthalen-1-yl)urea] | 27 | 12 | 31 | 2220 | 1.7 | 7.3 | 3.5 | 16.0 | 28.5 | 90.2 | – | – |
| COc1c(NC(=O)Nc2ccc(Oc3ccnc(NCc4ccccn4)c3)c3ccccc23)cc(C(C)(C)C)cc1P(C)(C)=O [38(e), 1-(5-(tert-Butyl)-3-(dimethylphosphoryl)-2-methoxyphenyl)-3-(4-((2-((pyridin-2-ylmethyl)amino)pyridin-4-yl)oxy)naphthalen-1-yl)urea] | 5 | 522 | > 1600 | 1980 | 2.9 | 15.9 | 2.0 | 30.5 | 32.5 | 41.6 | – | – |
| COc1c(CC(N)=O)cc(C(C)(C)C)cc1NC(=O)Nc1ccc(Oc2ccnc(Nc3cccc(OS(C)(=O)=O)c3)c2)c2ccccc12 [38(r), 3-((4-((4-(3-(3-(2-Amino-2-oxoethyl)-5-(tert-butyl)-2-methoxyphenyl)ureido)naphthalen-1-yl)oxy)pyridin-2-yl)amino)phenyl methanesulfonate] | 151 | 94 | > 1460 | 2210 | 1.9 | 25.9 | – | – | – | 56.1 | 153 | 9.8 |
| COc1cc(Nc2cc(Oc3ccc(NC(=O)Nc4cc(C(C)(C)C)cc(C[S+](C)[O-])c4OC)c4ccccc34)ccn2)cc(C(=O)NCCN2CCOCC2)c1 (centres unmarked) [38(u), 3-((4-((4-(3-(5-(tert-Butyl)-2-methoxy-3-((methylsulfinyl)methyl)phenyl)ureido)naphthalen-1-yl)oxy)pyridin-2-yl)amino)-5-methoxy-N-(2-morpholinoethyl)benzamide] | 15 | 13 | – | 1070 | 1 | 2.6 | – | – | – | 72.2 | 171 | 2.9 |
| COCCOCCOCCOc1cc(Nc2nccc(Oc3ccc(NC(=O)Nc4cc(C(C)(C)C)cc(OS(C)(=O)=O)c4OC)c4ccccc34)n2)cc(OC)c1 [Example 5, 5-(tert-Butyl)-2-methoxy-3-(3-(4-((2-((3-methoxy-5-(2-(2-(2-methoxyethoxy)ethoxy)-ethoxy)phenyl)amino)pyrimidin-4-yl)oxy)naphthalen-1-yl)ureido)phenyl methanesulfonate] | – | – | – | > 9380 | 8.7 | 7.3 | – | – | – | – | – | – |
| COc1c(NC(=O)Nc2ccc(Oc3ccnc(NCc4ccccn4)c3)c3ccccc23)cc(C(C)(C)C)cc1[S+](C)[O-] (centres unmarked) [Example 42, 1-(5-(tert-Butyl)-2-methoxy-3-(methylsulfinyl)phenyl)-3-(4-((2-((pyridin-2-ylmethyl)amino)pyridin-4-yl)oxy)naphthalen-1-yl)urea] | 8 | > 1640 | > 1640 | 3410 | 4.3 | 2 | −5.0 | 12.0 | 20.5 | 29.9 | – | – |
| COc1cc(Nc2cc(Oc3ccc(NC(=O)Nc4cc(C(C)(C)C)cc(CC(N)=O)c4OC)c4ccccc34)ccn2)cc(C(=O)NCCN2CCOCC2)c1 [Example 45, 3-((4-((4-(3-(3-(2-Amino-2-oxoethyl)-5-(tert-butyl)-2-methoxyphenyl)ureido)naphthalen-1-yl)oxy)pyridin-2-yl)amino)-5-methoxy-N-(2-morpholinoethyl)benzamide] | 21 | 12 | > 706 | 1600 | 1.2 | 8 | – | – | – | 49.6 | 36.4 | 5.2 |
| COc1cc(Nc2cc(Oc3ccc(NC(=O)Nc4cc(C(C)(C)C)cc([S+](C)[O-])c4OC)c4ccccc34)ccn2)cc(C(=O)NCCN2CCOCC2)c1 (centres unmarked) [Example 46, 3-((4-((4-(3-(5-(tert-Butyl)-2-methoxy-3-(methylsulfinyl)phenyl)ureido)naphthalen-1-yl)oxy)pyridin-2-yl)amino)-5-methoxy-N-(2-morpholinoethyl)benzamide] | 25 | 25 | 996 | 2060 | 0.8 | 2.8 | – | – | – | 45.8 | 47.3 | 2.8 |
| COc1cc(Nc2cc(Oc3ccc(NC(=O)Nc4cc(C(C)(C)C)cc(P(C)(C)=O)c4OC)c4ccccc34)ccn2)cc(S(=O)(=O)N(C)CCN2CCOCC2)c1 [Example 75, 3-((4-((4-(3-(5-(tert-Butyl)-3-(dimethylphosphoryl)-2-methoxyphenyl)ureido)naphthalen-1-yl)oxy)pyridin-2-yl)amino)-5-methoxy-N-methyl-N-(2-morpholinoethyl)benzenesulfonamide] | 134 | 78 | > 1100 | 2320 | 1.6 | – | – | – | – | 13.9 | 115 | 3 |
